According to article PMC2913153 (Journal of the American Chemical Society, 2010):

Columns and labels:
FPR-negative U937 cells = assay: Chemotaxis of FPR-negative U937 cells; type: cell-based; conditions: result in words
FPR = conditions: compared with fMLF; result in words; ref [13]; cited from earlier work

## N-formyl-norleucine-leucine-phenylalanine [Compound 1]
FPR-negative U937 cells
  chemotactic activity in FPR-negative U937 cells: None of the compounds induce chemotactic activity
FPR
  chemoattractant potency relative to fMLF: less potent than fMLF
